Activity coefficient data for 4 compounds are collected here from the NIST ThermoML archive (doi:10.1016/j.jct.2016.01.017).

The data set is described as follows: activity coefficient (dimensionless); of the first substance listed, at infinite dilution; xn = mol fraction of the nth substance listed. The conditions noted are these: 100 kPa, Liquid, Chromatography, x1 = 0.

Structures are written as SMILES. ± gives the expanded uncertainty stated by the source.

For `C1CCOC1` [tetrahydrofuran] + CCCC[n+]1ccc(C#N)cc1.O=S(=O)([N-]S(=O)(=O)C(F)(F)F)C(F)(F)F, the activity coefficient by setting is: (308.15 K) 0.622 ± 0.054; (318.15 K) 0.661 ± 0.057; (328.15 K) 0.701 ± 0.06; (338.15 K) 0.742 ± 0.063; (348.15 K) 0.779 ± 0.065; (358.15 K) 0.818 ± 0.068. For the setting “368.15 K”, the activity coefficient came out at 0.858 ± 0.071.

Consider `c1ccsc1` [thiophene] + CCCC[n+]1ccc(C#N)cc1.O=S(=O)([N-]S(=O)(=O)C(F)(F)F)C(F)(F)F, for which the activity coefficient runs as follows: (308.15 K) 0.916 ± 0.076; (318.15 K) 0.96 ± 0.08; (328.15 K) 1 ± 0.08; (338.15 K) 1.05 ± 0.09; (348.15 K) 1.1 ± 0.09; (358.15 K) 1.14 ± 0.09. The activity coefficient (368.15 K) was found to be 1.18 ± 0.1.

For the compound `Cc1ccccc1` [toluene] + CCCC[n+]1ccc(C#N)cc1.O=S(=O)([N-]S(=O)(=O)C(F)(F)F)C(F)(F)F, the activity coefficient was 1.46 ± 0.12 (308.15 K); 1.54 ± 0.13 (318.15 K); 1.62 ± 0.14 (328.15 K); 1.7 ± 0.14 (338.15 K); 1.78 ± 0.15 (348.15 K); 1.86 ± 0.16 (358.15 K). Further, the activity coefficient (368.15 K) was found to be 1.94 ± 0.17.

Consider `O` [water] + CCCC[n+]1ccc(C#N)cc1.O=S(=O)([N-]S(=O)(=O)C(F)(F)F)C(F)(F)F, for which the activity coefficient runs as follows: (308.15 K) 3.31 ± 0.29; (318.15 K) 3.01 ± 0.26; (328.15 K) 2.74 ± 0.24; (338.15 K) 2.52 ± 0.22; (348.15 K) 2.33 ± 0.2; (358.15 K) 2.16 ± 0.19. The activity coefficient (368.15 K) was determined as 2 ± 0.17.
